Legend:
[1] = tested on: present invention protein (A1); test: Metabolism of compounds by the present invention protein (A1), reaction solution, HPLC; format: in vitro ADME, Streptomyces phaeochromogenes IFO12898; conditions: 5 ppm of compound, components A, B, C, 20 μl supernatant fraction of Example 4(2), 30° C. for 10 minutes
Experimental: There was prepared 100 μl of a reaction solution of 50 mM potassium phosphate buffer (pH7.0) containing 5 ppm of compound (XII), 3 mM of […] (hereinafter, referred to as “component A”) (Oriental Yeast Company), 1 mg/ml of a ferredoxin derived from spinach (hereinafter referred to as “component B”) (Sigma Company), 0.15 U/ml of ferredoxin reductase (hereinafter, referred to as “component C”) (Sigma Company) and 20 μl of the supernatant fraction recovered in Example 4(2). The reaction solution was maintained at 30° C. for 10 minutes. Further, there was prepared and maintained similarly 100 μl of a reaction solution of a 50 mM potassium phosphate buffer (pH 7.0) having no addition of at least one component utilized in the composition of the above reaction solution, selected from component A, component B, component C and the supernatant fraction prepared in Example 4(2). Ten microliters (10 μl) of 2N HCl and 500 μl of ethyl acetate were added and mixed into each of the reaction solutions after the maintenance. The resulting reaction solutions were centrifuged at 8,000×g to recover 490 μl of the ethyl acetate layer. After drying the ethyl acetate layers under reduced pressure, the residue was dissolved in 100 μl of 50 mM of potassium phosphate buffer (pH7.0). Forty microliters (40 μl) of the fraction solutions (hereinafter, the fraction solution derived from the reaction solution containing component A, component B, component C and 20 μl of supernatant fraction recovered in Example 4(2) is referred to as “(XII) metabolism solution (A1);” further, the fraction solution derived from the reaction solution containing no component A, no component B, no component C and no supernatant fraction recovered in Example 4(2) is referred to as “(XII) control solution (A1)”) were analyzed on a HPLC. Compared to the concentration of compound (XII) detected from (XII) control solution (A1), the concentration of compound (XII) detected from (XII) metabolism solution (A1) was lower. Further a peak, which was not detected from the (XII) control solution (A1), was detected from the (XII) metabolism solution (A1). Mass spectrometry was conducted for the compound contained in such a peak. The mass of the compound contained in such a peak was 14 smaller than the mass of compound (XII).
Other than utilizing 5 ppm of compound (XIII) instead of 5 ppm of compound (XII), reaction solutions were prepared and maintained similarly to the method described in Example 41(2). […] Compared to the concentration of compound (XIII) detected from (XIII) control solution (A1), the concentration of compound (XIII) detected from (XIII) metabolism solution (A1) was lower. Further a peak, which was not detected from the (XIII) control solution (A1), was detected from the (XIII) metabolism solution (A1). […]

[2] = tested on: present invention protein (A20); test: Metabolism of compounds by the present invention protein (A20), reaction solution, HPLC; format: in vitro ADME, Streptomyces lanatus IFO 12787T; conditions: 12.5 ppm of compound, components A, B, C, 20 μl supernatant fraction of Example 57(2), 30° C. for 10 minutes
[3] = tested on: present invention protein (A19); test: Metabolism of compounds by the present invention protein (A19), reaction solution, HPLC; format: in vitro ADME, Streptomyces griseus IFO 13849T; conditions: 12.5 ppm of compound, components A, B, C, 20 μl supernatant fraction of Example 55(2), 30° C. for 10 minutes
[4] = tested on: present invention protein (A11); test: Metabolism of compounds by the present invention protein (A11), reaction solution, HPLC; format: in vitro ADME, Streptomyces nogalator IFO13445; conditions: 5 ppm of compound, components A, B, C, 20 μl supernatant fraction of Example 32(2), 30° C. for 10 minutes
Experimental: There was prepared 100 μl of a reaction solution of 50 mM potassium phosphate buffer (pH7.0) containing 5 ppm of compound (XII), 3 mM of […] (hereinafter, referred to as “component A”) (Oriental Yeast Company), 1 mg/ml of a ferredoxin derived from spinach (hereinafter referred to as “component B”) (Sigma Company), 0.15 U/ml of ferredoxin reductase (hereinafter, referred to as “component C”) (Sigma Company) and 20 μl of the supernatant fraction recovered in Example 4(2). The reaction solution was maintained at 30° C. for 10 minutes. Further, there was prepared and maintained similarly 100 μl of a reaction solution of a 50 mM potassium phosphate buffer (pH 7.0) having no addition of at least one component utilized in the composition of the above reaction solution, selected from component A, component B, component C and the supernatant fraction prepared in Example 4(2). Ten microliters (10 μl) of 2N HCl and 500 μl of ethyl acetate were added and mixed into each of the reaction solutions after the maintenance. The resulting reaction solutions were centrifuged at 8,000×g to recover 490 μl of the ethyl acetate layer. After drying the ethyl acetate layers under reduced pressure, the residue was dissolved in 100 μl of 50 mM of potassium phosphate buffer (pH7.0). Forty microliters (40 μl) of the fraction solutions (hereinafter, the fraction solution derived from the reaction solution containing component A, component B, component C and 20 μl of supernatant fraction recovered in Example 4(2) is referred to as “(XII) metabolism solution (A1);” further, the fraction solution derived from the reaction solution containing no component A, no component B, no component C and no supernatant fraction recovered in Example 4(2) is referred to as “(XII) control solution (A1)”) were analyzed on a HPLC. Compared to the concentration of compound (XII) detected from (XII) control solution (A1), the concentration of compound (XII) detected from (XII) metabolism solution (A1) was lower. Further a peak, which was not detected from the (XII) control solution (A1), was detected from the (XII) metabolism solution (A1). Mass spectrometry was conducted for the compound contained in such a peak. […]
Other than utilizing 20 μl of the supernatant fraction recovered in Example 32(2) instead of 20 μl of the supernatant fraction recovered in Example 4(2), the reaction solutions were prepared and maintained in accordance with the method described in Example 41(2). […] Compared to the concentration of compound (XII) detected from (XII) control solution (A11), the concentration of compound (XII) detected from (XII) metabolism solution (A11) was lower. Further a peak, which was not detected from the (XII) control solution (A11), was detected from the (XII) metabolism solution (A11). […]

[5] = tested on: present invention protein (A15); test: Metabolism of compounds by the present invention protein (A15), reaction solution, HPLC; format: in vitro ADME, Streptomyces olivochromogenes IFO 12444; conditions: 5 ppm of compound, components A, B, C, 20 μl supernatant fraction of Example 40(2), 30° C. for 10 minutes
[6] = tested on: present invention protein (A13); test: Metabolism of compounds by the present invention protein (A13), reaction solution, HPLC; format: in vitro ADME, Streptomyces thermocoerulesces IFO 14273t; conditions: 5 ppm of compound, components A, B, C, 20 μl supernatant fraction of Example 36(2), 30° C. for 10 minutes
[7] = tested on: present invention protein (A3); test: Metabolism of compounds by the present invention protein (A3), reaction solution, HPLC; format: in vitro ADME, Streptomyces testaceus ATCC21469; conditions: 5 ppm of compound, components A, B, C, 20 μl supernatant fraction of Example 12(2), 30° C. for 10 minutes

Cn1c(C(F)(F)F)cc(=O)n(-c2cc(Oc3cccnc3OCC(=O)O)c(Cl)cc2F)c1=O [compound (XII)]
lower: concentration of the compound detected from metabolism solution (A1) compared to control solution (A1) [1] | concentration of the compound detected from metabolism solution (A20) compared to control solution (A20) [2] | concentration of the compound detected from metabolism solution (A19) compared to control solution (A19) [3] | concentration of the compound detected from metabolism solution (A11) compared to control solution (A11) [4] | concentration of the compound detected from metabolism solution (A15) compared to control solution (A15) [5] | concentration of the compound detected from metabolism solution (A13) compared to control solution (A13) [6] | concentration of the compound detected from metabolism solution (A3) compared to control solution (A3) [7]

Cn1c(C(F)(F)F)cc(=O)n(-c2cc(Oc3ccccc3OCC(=O)O)c(Cl)cc2F)c1=O [compound (XIII)]
lower: concentration of the compound detected from metabolism solution (A1) compared to control solution (A1) [1] | concentration of the compound detected from metabolism solution (A20) compared to control solution (A20) [2] | concentration of the compound detected from metabolism solution (A19) compared to control solution (A19) [3] | concentration of the compound detected from metabolism solution (A11) compared to control solution (A11) [4] | concentration of the compound detected from metabolism solution (A15) compared to control solution (A15) [5] | concentration of the compound detected from metabolism solution (A13) compared to control solution (A13) [6] | concentration of the compound detected from metabolism solution (A3) compared to control solution (A3) [7]

Source: US8293979B2, “Weed controller metabolism proteins, genes, thereof and use of the same” (Sumitomo Chemical Company, Limited, priority 2001, dated 2012)
